Like-named read-outs stand apart in the source and are kept apart here.
Key:
M4 muscarinic receptor = target: T1, M4 muscarinic receptor (Homo sapiens, UniProt P08173); assay: Functional mobilization of intracellular calcium (FLIPR, Fluo-3), M4-CHO cells; format: cell-based; settings: for Emax: read-out: M4 Efficacy
T1 construct: expressed in transfected cells; host or cells: CHO cells (M4-CHO, under puromycin, zeocin and blasticidin selection)
T1 sequence (P08173 1-479): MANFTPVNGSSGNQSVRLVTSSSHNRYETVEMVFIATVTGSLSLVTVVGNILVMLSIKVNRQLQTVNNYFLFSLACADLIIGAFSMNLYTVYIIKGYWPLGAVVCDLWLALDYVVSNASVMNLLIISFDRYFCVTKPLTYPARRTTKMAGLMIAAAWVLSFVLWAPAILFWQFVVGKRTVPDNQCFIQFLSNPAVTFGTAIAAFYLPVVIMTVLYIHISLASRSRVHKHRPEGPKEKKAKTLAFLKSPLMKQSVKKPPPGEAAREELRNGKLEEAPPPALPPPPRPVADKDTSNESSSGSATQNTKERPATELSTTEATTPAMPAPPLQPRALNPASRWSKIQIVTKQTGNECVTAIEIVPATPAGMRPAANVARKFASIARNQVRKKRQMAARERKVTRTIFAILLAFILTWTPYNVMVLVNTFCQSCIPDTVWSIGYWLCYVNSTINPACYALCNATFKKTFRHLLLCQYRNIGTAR
Method in brief: (§1)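 Intracellular calcium was tracked by fluorescence (488/540 nm) over 60 sec after compound addition to dye-loaded CHO cells expressing the receptor. Inhibitory activity used a 15 min pre-incubation before carbachol at the subtype EC80.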

M1 muscarinic receptor = target: T2, M1 muscarinic receptor (Homo sapiens, UniProt P11229); assay: Functional mobilization of intracellular calcium (FLIPR, Fluo-3), M1-CHO cells; format: cell-based; settings: for Emax: read-out: M1 Efficacy
T2 construct: expressed in transfected cells; host or cells: CHO cells (M1-CHO, under zeocin and G418 selection)
T2 sequence (P11229 1-460): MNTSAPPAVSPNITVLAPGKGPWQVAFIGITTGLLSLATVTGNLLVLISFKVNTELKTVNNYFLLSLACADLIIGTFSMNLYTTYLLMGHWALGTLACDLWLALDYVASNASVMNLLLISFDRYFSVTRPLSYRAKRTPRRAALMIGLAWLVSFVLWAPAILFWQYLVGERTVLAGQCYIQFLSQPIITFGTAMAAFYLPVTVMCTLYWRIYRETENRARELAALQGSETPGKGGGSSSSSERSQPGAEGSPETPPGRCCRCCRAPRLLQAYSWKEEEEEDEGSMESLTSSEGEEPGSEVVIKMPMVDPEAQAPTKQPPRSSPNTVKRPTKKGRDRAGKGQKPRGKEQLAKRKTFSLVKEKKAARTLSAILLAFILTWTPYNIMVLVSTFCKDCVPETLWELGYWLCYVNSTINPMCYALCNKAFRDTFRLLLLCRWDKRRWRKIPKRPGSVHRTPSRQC
Method in brief: as §1

[1] = compound nos. 1-454, 100% efficacy is the maximum response obtained with the Carbachol control
[2] = compound nos. 1-454, M4-CHO cells, calcium mobilization
[3] = compound nos. 1-454, M1-CHO cells, calcium mobilization
[4] = compound nos. 455-509, 100% efficacy is the maximum response obtained with the Carbachol control

| SMILES | Emax (M4 muscarinic receptor; [1]) | M4 Activity (M4 muscarinic receptor; [2]) | Emax (M1 muscarinic receptor; [1]) | M1 Activity (M1 muscarinic receptor; [3]) | other results |
| --- | --- | --- | --- | --- | --- |
| CCOC(=O)N1CCC(N2CCC3(CC2)CN(C(C)=O)c2ccc(-c4ccsc4)cc23)CC1 [compound 165] | > 70% | + (activity was measured to be greater than or equal to 4.0 μM) | 65 to 85% | + (activity was measured to be greater than or equal to 3.0 μM) | – |
| CCOC(=O)N1C2CCC1CC(N1CCC3(CC1)CN(C(=O)OC1CCC1)c1ccc(F)cc13)C2 (stereo not drawn) [compound 409] | > 70% | – | > 85% | – | M4 Activity (M4 muscarinic receptor; compound nos. 1-454): +++ (activity was measured to be less than or equal to 0.1 μM); M1 Activity (M1 muscarinic receptor; compound nos. 1-454): +++ (activity was measured to be less than or equal to 0.7 μM) |
| CCC1CCC(N2CCC3(CC2)CN(C(C)=O)c2ccc(F)cc23)CC1 (stereo not drawn) [compound 27] | 55 to 70% | +++ (activity was measured to be less than or equal to 0.1 μM) | 65 to 85% | +++ (activity was measured to be less than or equal to 0.7 μM) | – |
| CCOC(=O)N1C2CCC1CC(N1CCC3(CC1)CN(C(=O)c1cc(C)oc1C)c1ccc(F)cc13)C2 (stereo not drawn) [compound 73] | 55 to 70% | ++ (activity was measured to be between 0.1 μM and 4.0 μM) | 65 to 85% | +++ (activity was measured to be less than or equal to 0.7 μM) | – |
| COCCOC(=O)N1C2CCC1CC(N1CCC3(CC1)CN(C(=O)N(C)C)c1ccc(F)cc13)C2 (stereo not drawn) [compound 119, 2-methoxyethyl 3-(1-(dimethylcarbamoyl)-5-fluorospiro[indoline-3,4′-piperidine]-1′-yl)-8-azabicyclo[3.2.1]octane-8-carboxylate] | < 55% | + (activity was measured to be greater than or equal to 4.0 μM) | < 65% | +++ (activity was measured to be less than or equal to 0.7 μM) | – |
| Cc1ncc(N2CCC(N3CCC4(CC3)CN(C(=O)N(C)C)c3ccc(F)cc34)CC2)nc1C [compound 472] | – | – | – | – | Emax (M4 muscarinic receptor; [4]): 25 to 100%; M4 Activity (M4 muscarinic receptor; compounds 455-509): ++ (activity was measured to be between 2.0 μM and 5.0 μM); Emax (M1 muscarinic receptor; [4]): > 100%; M1 Activity (M1 muscarinic receptor; compounds 455-509): +++ (activity was measured to be less than or equal to 2.0 μM) |
| CCCC1CCC(N2CCC3(CC2)CNc2ccccc23)CC1 (stereo not drawn) [compound 334] | < 55% | + (activity was measured to be greater than or equal to 4.0 μM) | < 65% | + (activity was measured to be greater than or equal to 3.0 μM) | – |
| CC(=O)N1CC2(CCN(CC3CCCC3)CC2)c2cc(F)ccc21 [compound 187] | 55 to 70% | + (activity was measured to be greater than or equal to 4.0 μM) | 65 to 85% | ++ (activity was measured to be between 0.7 μM and 3.0 μM) | – |
| O=C(O[C@H]1CCOC1)N1C2CCC1CC(N1CCC3(CCc4ccccc43)CC1)C2 (stereo partly drawn) [compound 355] | 55 to 70% | ++ (activity was measured to be between 0.1 μM and 4.0 μM) | 65 to 85% | ++ (activity was measured to be between 0.7 μM and 3.0 μM) | – |
| O=C1Nc2ccccc2C12CCN(CC1CC3C=CC1C3)CC2 (stereo not drawn) [compound 7] | > 70% | ++ (activity was measured to be between 0.1 μM and 4.0 μM) | 65 to 85% | +++ (activity was measured to be less than or equal to 0.7 μM) | – |
| Fc1ccc2c(c1)C1(CCN(C[C@H]3C[C@H]4CC[C@H]3C4)CC1)CO2 [compound 207] | < 55% | + (activity was measured to be greater than or equal to 4.0 μM) | 65 to 85% | ++ (activity was measured to be between 0.7 μM and 3.0 μM) | – |
| CC(=O)N1CC2(CCN(C3CCN(c4cncc(C)n4)CC3)CC2)c2ccccc21 [compound 470] | – | – | – | – | Emax (M4 muscarinic receptor; [4]): 25 to 100%; M4 Activity (M4 muscarinic receptor; compounds 455-509): ++ (activity was measured to be between 2.0 μM and 5.0 μM); Emax (M1 muscarinic receptor; [4]): > 100%; M1 Activity (M1 muscarinic receptor; compounds 455-509): +++ (activity was measured to be less than or equal to 2.0 μM) |
| CC(=O)NC1CC2(CCN(CC3CC4C=CC3C4)CC2)c2ccccc21 (stereo not drawn) [compound 305] | – | + (activity was measured to be greater than or equal to 4.0 μM) | – | + (activity was measured to be greater than or equal to 3.0 μM) | M4 Efficacy (M4 muscarinic receptor; [1]): + (efficacy was calculated to be 55% or less); M1 Efficacy (M1 muscarinic receptor; [1]): + (efficacy was calculated to be 65% or less) |
| CCOC(=O)N1CCC(N2CCC3(CC2)CN(C(=O)c2cccc(OC)c2)c2ccc(F)cc23)CC1 [compound 45] | 55 to 70% | +++ (activity was measured to be less than or equal to 0.1 μM) | > 85% | +++ (activity was measured to be less than or equal to 0.7 μM) | – |
| CCOC(=O)N[C@@H]1CC2(CCN(C[C@H]3C[C@H]4CC[C@H]3C4)CC2)c2ccccc21 [compound 275] | > 70% | ++ (activity was measured to be between 0.1 μM and 4.0 μM) | 65 to 85% | +++ (activity was measured to be less than or equal to 0.7 μM) | – |
| O=C(OC1CCCC1)N1C2CCC1CC(N1CCC3(CCc4ccccc43)CC1)C2 (stereo not drawn) [compound 258] | < 55% | + (activity was measured to be greater than or equal to 4.0 μM) | 65 to 85% | + (activity was measured to be greater than or equal to 3.0 μM) | – |
| CC(=O)N1CC2(CCN(C3CC4CCC(C3)N4C(=O)O[C@H]3CCOC3)CC2)c2cc(F)ccc21 (stereo partly drawn) [compound 47] | 55 to 70% | ++ (activity was measured to be between 0.1 μM and 4.0 μM) | 65 to 85% | +++ (activity was measured to be less than or equal to 0.7 μM) | – |
| CC(=O)N1CC2(CCN(CC3CCCCC3)CC2)c2cc(F)ccc21 [compound 393] | < 55% | – | 65 to 85% | – | M4 Activity (M4 muscarinic receptor; compound nos. 1-454): + (activity was measured to be greater than or equal to 4.0 μM); M1 Activity (M1 muscarinic receptor; compound nos. 1-454): +++ (activity was measured to be less than or equal to 0.7 μM) |
| COCCOC(=O)N1C2CCC1CC(N1CCC3(CC1)CN(C(C)=O)c1ccc(F)cc13)C2 (stereo not drawn) [compound 76] | 55 to 70% | ++ (activity was measured to be between 0.1 μM and 4.0 μM) | 65 to 85% | +++ (activity was measured to be less than or equal to 0.7 μM) | – |
| CS(=O)(=O)N1CC2(CCN(C3CC4CCC(C3)N4C(=O)O[C@H]3CCOC3)CC2)c2cc(F)ccc21 (stereo partly drawn) [compound 388] | < 55% | – | 65 to 85% | – | M4 Activity (M4 muscarinic receptor; compound nos. 1-454): + (activity was measured to be greater than or equal to 4.0 μM); M1 Activity (M1 muscarinic receptor; compound nos. 1-454): +++ (activity was measured to be less than or equal to 0.7 μM) |
| CCOC(=O)N1CCC(N2CCC3(CC2)CN(C(=O)c2ccc(OC(F)(F)F)cc2)c2ccc(F)cc23)CC1 [compound 66] | > 70% | +++ (activity was measured to be less than or equal to 0.1 μM) | > 85% | +++ (activity was measured to be less than or equal to 0.7 μM) | – |

Reference: US7858635B2 (priority 2005, dated 2010)
